Columns and labels:
[1] = tested on: ROS produced by the worms; conditions: worms on mutant or wild-type yeast with E. coli, treated with DPI; expected result of a planned test
Excerpt: a) Peroxidase enzyme activity: A commercially available assay (Amplex Red peroxidase kit, Molecular Probes) will be used to test peroxidase activity (20). Briefly, ROS produced by the worms, presumably in response to pathogenic attack, oxidize the substrate Amplex Red, to form a red fluorescent product that can be measured spectrophotometrically.
Briefly, worms reared on mixed cultures of mutant or wild-type yeast with E. coli will be treated with DPI.

C. elegans = conditions: worms on mutant or wild-type yeast with E. coli, treated with DPI; expected result of a planned test
Excerpt: The worms are carefully monitored twice a day from the time the eggs are exposed to the microbial cultures up to day 4, when the Dar phenotype is clearly visible. […] At day 4, the anal swelling (or Dar) phenotype is scored for worms plated on mixed lawns of E. coli and yeast and compared to worms plated on E. coli lawns without yeast or with heat inactivated yeast.
Briefly, worms reared on mixed cultures of mutant or wild-type yeast with E. coli will be treated with DPI. Its effect on the nematode host will be observed phenotypically (using the Dar phenotype described in Preliminary studies) and biochemically (using the peroxidase assay described in Specific Aim 1B).

Question: How did the peroxidase activity [1] turn out when `O=S(=O)([O-])[O-].c1ccc2c(c1)[I+]c1ccccc1-2.c1ccc2c(c1)[I+]c1ccccc1-2` [DPI, Diphenylene iodonium sulfate] was run?
Answer: low peroxidase activity

Question: And the Dar phenotype (C. elegans)?
Answer: expect to observe the Dar phenotype

Source: patent US8541197B2 (priority 2006, dated 2013)
